The source of these data is patent publication US11091460B2, “Syk inhibitor and use method therefor” (CHIA TAI TIANQING PHARMACEUTICAL GROUP CO., LTD., priority 2017, dated 2021).

pIC50: −log10 of the molar value.

The target of the test is T1, SYK kinase (Homo sapiens, UniProt P43405).
T1 construct: purchased Invitrogen PV3857
In words: In vitro test of the inhibition effect on SYK kinase (HTRF). The class given is biochemical. To be noted: tyrosine kinase 0.0156 ng/μL, substrate 0.2 uM, ATP 2 uM, 23° C. 1 hour, read-out: Inhibit SYK kinase IC50. As for the experimental part:
Experimental Example 1: In Vitro Test of the Inhibition Effect of the Example Compounds on SYK Kinase
Adenosine triphosphate concentration was controlled at 2 uM. • 4) Loaded with a Multidrop automatic dispenser, and a mixture of tyrosinase solution and tyrosine kinase-substrate-biotin/adenosine triphosphate was added in an amount of 5 ul per well, and incubated at 23° C. for 1 hour. • c) Detection phase: • 1) Added 13.33 mL of ethylenediaminetetraacetic acid solution to the Detection Buffer in the kit, added the specified amount of […] (Eu)-labeled antibody and streptavidin XL-665, and prepared the detection solution. • 2) Loaded with a Multidrop automatic dispenser, and 10 uL of the detection solution per well, incubated at 23° C. for 1 hour. It terminated the reaction of the enzyme and substrate mixture. • 3) Reading after centrifugation on a multi-function microplate reader, • d) Data Analysis: Analyzed the data with XL-Fit, and calculated the IC50 value of the compound.
Take `Cn1c(=O)c(Nc2ccc(N3CCOCC3)cc2)nc2ccc(-c3cnc(N)s3)cc21` [Example 58, 7-(2-Aminothiazol-5-yl)-1-methyl-3-((4-morpholinephenyl)amino)quinoxaline-2(1H)-one]: the pIC50 is 6.70.
The figure for `Cc1cc(Nc2nc3ccc(-c4cn[nH]c4)cc3n(C)c2=O)ccc1N1CCOCC1` [Example 49] is 7.65; for `C[C@H]1COCCN1c1ccc(Nc2cc3c(F)c(-c4cc[nH]n4)ccc3n(C)c2=O)nc1` [Example 14, (S) 5-fluoro-1-methyl-3-((5-(3-methylmorpholine)pyridin-2-yl)amino)-6-(1H-pyrazol-3-yl)quinoline-2(1H)-one] it is 6.63; for `Cn1c(=O)c(Nc2ccc(C3(O)COC3)cn2)cc2c(F)c(-c3cc[nH]n3)ccc21` [Example 22, 5-Fluoro-3-[[5-(3-hydroxyoxetan-3-yl)pyridin-2-yl]amino]-1-methyl-6-(1H-pyrazol-3-yl)quinoline-2(1H)-one] it is 7.41.
The figure for `Cn1c(=O)c(Nc2ccc(N3CCOCC3)cn2)nc2ccc(-c3cn[nH]c3)cc21` [Example 52, 1-Methyl-3-((5-morpholinepyridin-2-yl)amino)-7-(1H-pyrazol-4-yl)quinoxaline-2(1H)one] is 7.53; for `Cn1c(=O)c(Nc2cccc(N3CCN(S(C)(=O)=O)CC3)c2)nc2ccc(-c3cn[nH]c3)cc21` [Example 40, 1-Methyl-3-((3-(4-(methylsulfonyl)piperazin-1-yl)phenyl)amino)-7-(1H-pyrazol-4-yl)quinoxaline-2(1H)-one] it is 6.79.
Regarding `Cn1c(=O)c(Nc2ccc(N3CCOCC3)cc2)nc2ccc(-c3cn[nH]c3)c(Cl)c21` [Example 43, 8-Chloro-1-methyl-3-((4-morpholinephenyl)amino)-7-(1H-pyrazol-4-yl)quinoxaline-2(1H)-one], the pIC50 was 6.94.
The figure for `Cn1c(=O)c(Nc2ccc(N3CCOCC3)cc2)nc2ccc(-c3cnc(N)[nH]3)cc21` [Example 57, 7-(2-Amino-1H-imidazol-5-yl)-1-methyl-3-((4-morpholinephenyl)amino)quinoxaline-2(1H)-one] is 7.20.
Consider `COc1cc(Nc2nc3ccc(-c4cn[nH]c4)cc3n(C)c2=O)ccc1N1CCOCC1` [Example 51, 3-((3-Methoxy-4-morpholinephenyl)amino)-1-methyl-7-(1H-pyrazol-4-yl)quinoxaline-2(1H)one], for which the negative-log IC50 (pIC50) was 7.89.
In the case of `Cn1c(=O)c(Nc2ccc(NC3CCOCC3)nc2)nc2ccc(-c3cn[nH]c3)cc21` [Example 56, 1-Methyl-7-(1H-pyrazol-4-yl)-3-((6-((tetrahydro-2H-pyran-4-yl)amino)pyridin-3-yl)amino)quinoxaline-2(1H)-one] it was 7.53; in that of `CCS(=O)(=O)N1CCN(c2ccc(Nc3nc4ccc(-c5cn[nH]c5)cc4n(C)c3=O)cc2)CC1` [Example 36, 3-((4-(4-(Ethylsulfonyl)piperazin-1-yl)phenyl)amino)-1-methyl-7-(1H-pyrazol-4-yl)quinoxaline-2(1H)-one], 8.19.
Consider `CN1CCN(S(=O)(=O)c2ccc(Nc3nc4ccc(-c5cn[nH]c5)cc4n(C)c3=O)cc2)CC1` [Example 34, 1-Methyl-3-((4-((4-methylpiperazin-1-yl)sulfonyl)phenyl)amino)-7-(1H-pyrazol-4-yl)quinoxaline-2(1H)-one], for which the negative-log IC50 (pIC50) is 7.59.
In the case of `Cn1c(=O)c(Nc2ccc(N3CCOCC3)cc2)nc2ccc(-c3ncc[nH]3)cc21` [Example 30, 7-(1H-imidazol-2-yl)-1-methyl-3-((4-morpholinephenyl)amino)quinoxaline-2(1H)-one] it was 6.34.
The figure for `Cn1c(=O)c(Nc2ccc(N3CCOCC3)cc2)nc2ccc(-c3nccs3)cc21` [Example 32, 1-Methyl-3-((4-morpholinephenyl)amino)-7-(thiazol-2-yl)quinoxaline-2(1H)-one] is 6.67; for `Cn1c(=O)c(Nc2ccc(N3CCOCC3)cc2)nc2ccc(-c3ccncc3)cc21` [Example 28, 1-Methyl-3-((4-morpholinephenyl)amino)-7-(pyridin-4-yl)quinoxaline-2(1H)-one] it is 6.64.
In the case of `Cn1c(=O)c(Nc2ccc(N3CCC(O)(C(F)(F)F)CC3)cn2)cc2cc(-c3cc[nH]n3)ccc21` [Example 5] it was 7.23.
Turning to `C[C@@H]1COCCN1c1ccc(Nc2cc3c(F)c(-c4cc[nH]n4)ccc3n(C)c2=O)nc1` [Example 13, (R) 5-fluoro-1-methyl-3-((5-(3-methylmorpholine)pyridin-2-yl)amino)-6-(1H-pyrazol-3-yl)quinoline-2(1H)-one], the pIC50 is 6.03.
In the case of `Cn1c(=O)c(Nc2ccc(N3CCOCC3)cc2)nc2cc(Cl)c(-c3cn[nH]c3)cc21` [Example 42, 6-Chloro-1-methyl-3-((4-morpholinephenyl)amino)-7-(1H-pyrazol-4-yl)quinoxaline-2(1H)-one] it was 7.52; in that of `Cn1c(=O)c(Nc2ccc(N3CCOCC3)cc2F)nc2ccc(-c3cn[nH]c3)cc21` [Example 47, 3-((2-Fluoro-4-morpholinephenyl)amino)-1-methyl-7-(1H-pyrazol-4-yl)quinoxaline-2(1H)-one], 6.62.
In the case of `Cn1c(=O)c(Nc2ccc(N3CCOCC3)c(Cl)c2)nc2ccc(-c3cn[nH]c3)cc21` [Example 50, 3-((3-Chloro-4-morpholinephenyl)amino)-1-methyl-7-(1H-pyrazol-4-yl)quinoxaline-2(1H)-one] it was 7.31.
In the case of `Cn1c(=O)c(Nc2ccc(N3CCOCC3)cc2)nc2ccc(-c3cc[nH]n3)cc21` [Example 27, 1-Methyl-3-((4-morpholinephenyl)amino)-7-(1H-pyrazol-3-yl) quinoxaline-2(1H)-one] it was 7.11; in that of `Cn1c(=O)c(Nc2ccc(N3CCOCC3)nc2)nc2ccc(-c3cn[nH]c3)cc21` [Example 53, 1-Methyl-3-((6-morpholinepyridin-3-yl)amino)-7-(1H-pyrazol-4-yl) quinoxaline-2(1H)one], 7.41.
